Experiment [1] deals with hearts from Lmna^H222P/H222P mice. Put plainly: Quantitative real-time RT-PCR of mRNAs in hearts of treated mice. Format: in vivo, mouse. To be noted: for expression of Colla1, Colla2 and Fn1 / expression of Mlc-2a, NppA and NppB mRNAs: 20 weeks of age, 3 mg/kg/day from 16 to 20 weeks. The source says:
Total RNA was extracted using the Rneasy isolation kit (Qiagen) as previously described (96). cDNA was synthesized as previously described (96) using Omniscript Reverse Transcriptase (Qiagen) on total cellular RNA. For each replicate in each experiment, RNA from tissue samples of different animals was used. Primers were designed that correspond to mouse RNA sequences using Primer3 (http://frodo.wi.mit.edu/cgi-biniprimer3/primer3_www.cgi). The real-time RT-PCR reaction contained iQ SYBR green super mix (Bio-Rad), 200 nM of each primer and 0.2 μl of template in a 25 μl reaction volume. Amplification was carried out using appropriate primers and the MyiQ Single-Color Real-Time PCR Detection System (Bio-Rad) with an initial denaturation at 95° C. for 2 min followed by 50 cycles at 95° C. for 30 s and 62° C. for 30 s. Relative levels of mRNA expression were calculated using the CT method (67). Individual expression values were normalized by comparison with Gapdh mRNA.
Real-time reverse transcription-PCR (RT-PCR) was used to quantify tissue RNA levels. Total RNA was extracted from cardiac ventricles of mice using the Rneasy isolation kit (Qiagen) as previously described. cDNA was synthesized using Superscript first strand synthesis system according to the manufacturer's instructions (Invitrogen) on total RNA. For each replicate in each experiment, RNA from tissue samples of different animals was used. Primers were designed correspond to mouse RNA sequences using Primer3 (http://frodo.wi.mit.edu/cgi-bin/primer3/primer3_www.cgi) for Nppa (forward 5′-[…]-3′ [SEQ ID NO: 4], reverse 5′-[…]-3′ [SEQ ID NO: 5]), Nppb (forward 5′-[…]-3′ [SEQ ID NO: 6], reverse 5′-[…]-3′ [SEQ ID NO: 7]), Mlc-2a (forward 5′-[…]-3′ [SEQ ID NO: 8], reverse 5′-[…]-3′ [SEQ ID NO: 9]), Colla1 (forward 5′-[…]-3′ [SEQ ID NO: 10], reverse 5′-[…]-3′ [SEQ ID NO: 11]), Colla2 (forward 5′-[…]-3′ [SEQ ID NO: 12], reverse 5′-[…]-3′ [SEQ ID NO: 13]) and Fn1 (forward 5′-[…]-3′ [SEQ ID NO: 14], reverse 5′-[…]-3′ [SEQ ID NO: 15]). The real-time RT-PCR reaction contained iQ SYBR green super mix (Bio-Rad), 200 nM of each primer, and 0.2 μl of template in a 25 μl reaction volume. Amplification was carried out using the MyiQ Single-Color Real-Time PCR Detection System (Bio-Rad) with an initial denaturation at 95° C. for […] followed by 50 cycles at 95° C. for 30 s and 62° C. for 30 s. Relative levels of mRNA expression were calculated using the ΔΔCT method (2). Individual expression values were normalized by comparison with Gapdh mRNA (forward 5′-[…]-3′ [SEQ ID NO: 16], reverse 5′-[…]-3′ [SEQ ID NO: 17]).

For experiment [2], the system named is JNK. The experiment is described as follows: Immunoblot of phosphorylated JNK versus total JNK in hearts of treated mice. Format: in vivo, mouse. To be noted: for phosphorylation of JNK / JNK signaling in heart: treated 8 to 16 weeks of age, 3 mg/kg/day i.p. Here is the method:
Hearts were excised from mice at 16-weeks of age and were homogenized in RIPA extraction buffer (Cell Signalling) containing protease inhibitors (25 […]). Protein samples were subjected to SDS-PAGE, transferred to nitrocellulose membranes and blotted with primary antibodies against ERK1/2 (Santa-Cruz), phosphorylated ERK1/2 (Cell Signaling), JNK (Santa-Cruz), natriuretic peptide precursor A (Santa-Cruz), phosphorylated JNK (Cell Signaling), and Gapdh (Ambion). Secondary antibodies were HRP-conjugated (Amersham). Recognized proteins were visualized by enhanced chemiluminescence (ECL, Amersham). The signal generated using an antibody against Gapdh was used as internal controls to normalize the amounts of protein between immunoblots.
Proteins were loaded on 10% SDS gels and electrotransferred on a […] pore size nitrocellulose membrane (Invitrogen). We used antibodies directed against phosphorylated ERK1/2 (Cell Signaling, 1:1,000), total ERK1/2 (Santa Cruz, 1:2,000), phosphorylated JNK (Cell Signaling, 1:1,000) and total JNK (Santa Cruz, 1:200). The secondary antibodies were coupled to horseradish-peroxydase (Amersham). Recognized proteins were visualized by enhanced chemiluminescence (SuperSignal® West Pico chemiluminescent substrate, Thermo Scientific).

The test system of experiment [3] is cyclooxygenase-2. To be noted: reference 137; cited from earlier work.
Experiment [4] deals with C2C12 cells. The experiment is described as follows: ERK1/2 phosphorylation in C2C12 cells treated with Emd and Lmna siRNAs (immunoblot, ELISA). It is filed as cell-based, mouse. To be noted: 45 μM for 24 hours. As to the method:
(§1) Human HeLa cells and mouse C2C12 cells were maintained in a 5% CO2 atmosphere at 37° C. The cells were cultured in Dulbecco's modified Eagle's medium supplemented with 10% calf bovine serum and 0.1% gentamicin.
(§2) One day before transfection, HeLa and C2C12 cells were trypsinized, diluted with fresh medium without antibiotics and transferred to 24-well plates. Transient transfection of siRNAs was carried out using Oligofectamine (Invitrogen) as recommended by the manufacturer. Cells were preincubated in 7.5 μl OPTIMEM 1 medium (Life Technologies) and 2 μl Oligofectamine per well for 5 minutes at room temperature. During the time of this incubation, 40 μl OPTIMEM 1 medium were mixed with 2.5 μl siRNA. The two mixtures were combined and incubated for 20 minutes at room temperature for complex formation. The entire mixture was added to the cells in one well resulting in a final concentration of […] for the siRNAs. […]
(§3) Proteins were separated by SDS-PAGE, transferred to nitrocellulose membranes and blotted with primary antibodies against ERK1/2 (Santa-Cruz), pERK1/2 (Cell Signaling), lamin A/C (Santa-Cruz), emerin (Novocatra), β-actin (Sant-Cruz) and Gapdh (Santa-Cruz). […] Band densities were calculated using Scion Image software (Scion Corporation) and normalized to the appropriate total extract to control for protein loading. […]

In experiment [5] the test system is HeLa cells. Put plainly: ERK1/2 phosphorylation in HeLa cells treated with Emd and Lmna siRNAs. To be noted: 45 μM for 24 hours. It is filed as cell-based, human. Here is the method: as §1, §2, §3
Experiment [6] has as its system cyclooxygenase-1. To be noted: reference 137; cited from earlier work.
Where [7] appears, read: pilot study, 24 weeks, treated from 19 weeks.
Setting [8] is: 3 mg/kg/day from 16 to 20 weeks of age.

For the molecule `O=C1c2ccccc2-c2n[nH]c3cccc1c23` [SP600125, anthra[1,9-cd]pyrazol-6(2H)-one], in experiment [1], the “expression of Colla1, Colla2 and Fn1” value is “significantly lowered”; the “expression of Mlc-2a, NppA and NppB mRNAs” value is listed as “significantly decreased”. Besides, in experiment [1] (setting [7]), the “cardiac expression of Mlc-2a, NppA, Colla1 and Colla2 mRNAs” value is “significantly reduced”. Further, the “phosphorylation of JNK in hearts” value in experiment [2] (setting [8]) is on record as “partially blocked”. Also, the “phosphorylation of JNK in hearts” value in experiment [2] (pilot study, 24 week-old mice treated from 19 weeks) is recorded as “partially blocked”. Further, in experiment [2], the “phosphorylation of JNK / JNK signaling in heart” value was “blocked”.

Consider `COc1cccc(-c2cc(=O)c3ccccc3o2)c1N` [PD98059, 2-(2-amino-3-methoxyphenyl)-4H-1-benzopyran-4-one], for which the “activity against cyclooxygenase-2” value in experiment [3] was “has activity”. In experiment [4] (C2C12 cells treated with Emd and Lmna siRNAs), the “increase in pERK (immunoblot)” value was “reduced”. Besides, the “ERK1/2 phosphorylation (ELISA)” value in experiment [4] (siRNA-treated C2C12 cells (FIG. 20B)) is reported as “Inhibition of ERK1/2”. In experiment [1], the “expression of Colla1, Colla2 and Fn1” value is on record as “significantly lowered”; the “expression of Mlc-2a, NppA and NppB mRNAs” value is “significantly decreased”. Moreover, in experiment [1] (hearts at 16 weeks, treated 8 to 16 weeks), the “expression of Elk1, Elk4, Atf2 and Atf4” value is “decreased expression”. Further, in experiment [1] (setting [7]), the “cardiac expression of Mlc-2a, NppA, Colla1 and Colla2 mRNAs” value was “significantly reduced”; the “cardiac expression of NppB mRNA” value is reported as “significantly reduced”. The “phosphorylation of JNK in hearts” value in experiment [2] (setting [8]) is listed as “not significantly inhibited”. The “phosphorylation of JNK / JNK signaling in heart” value in experiment [2] was “did not observe inhibition”. Also, the “increase in pERK (immunoblot)” value in experiment [5] is given as “reduced”. For the same molecule, the “activity against cyclooxygenase-1” value in experiment [6] is given as “has activity”.

These data come from patent publication US20110110916A1, “METHODS FOR TREATING AND/OR PREVENTING CARDIOMYOPATHIES BY ERK OR JNK INHIBITION” (priority 2008, published 2011).
